This is an account of results in patent US6525022B1, “Receptor specific atrial natriuretic peptides” (Genentech, Inc., priority 1993, dated 2003).

For data set [1], the target named is T1, human natriuretic peptide receptor-A expressed in 293 cells (Homo sapiens, UniProt P16066).
T1 construct: expressed in transfected cells
T1 sequence (P16066 33-1061): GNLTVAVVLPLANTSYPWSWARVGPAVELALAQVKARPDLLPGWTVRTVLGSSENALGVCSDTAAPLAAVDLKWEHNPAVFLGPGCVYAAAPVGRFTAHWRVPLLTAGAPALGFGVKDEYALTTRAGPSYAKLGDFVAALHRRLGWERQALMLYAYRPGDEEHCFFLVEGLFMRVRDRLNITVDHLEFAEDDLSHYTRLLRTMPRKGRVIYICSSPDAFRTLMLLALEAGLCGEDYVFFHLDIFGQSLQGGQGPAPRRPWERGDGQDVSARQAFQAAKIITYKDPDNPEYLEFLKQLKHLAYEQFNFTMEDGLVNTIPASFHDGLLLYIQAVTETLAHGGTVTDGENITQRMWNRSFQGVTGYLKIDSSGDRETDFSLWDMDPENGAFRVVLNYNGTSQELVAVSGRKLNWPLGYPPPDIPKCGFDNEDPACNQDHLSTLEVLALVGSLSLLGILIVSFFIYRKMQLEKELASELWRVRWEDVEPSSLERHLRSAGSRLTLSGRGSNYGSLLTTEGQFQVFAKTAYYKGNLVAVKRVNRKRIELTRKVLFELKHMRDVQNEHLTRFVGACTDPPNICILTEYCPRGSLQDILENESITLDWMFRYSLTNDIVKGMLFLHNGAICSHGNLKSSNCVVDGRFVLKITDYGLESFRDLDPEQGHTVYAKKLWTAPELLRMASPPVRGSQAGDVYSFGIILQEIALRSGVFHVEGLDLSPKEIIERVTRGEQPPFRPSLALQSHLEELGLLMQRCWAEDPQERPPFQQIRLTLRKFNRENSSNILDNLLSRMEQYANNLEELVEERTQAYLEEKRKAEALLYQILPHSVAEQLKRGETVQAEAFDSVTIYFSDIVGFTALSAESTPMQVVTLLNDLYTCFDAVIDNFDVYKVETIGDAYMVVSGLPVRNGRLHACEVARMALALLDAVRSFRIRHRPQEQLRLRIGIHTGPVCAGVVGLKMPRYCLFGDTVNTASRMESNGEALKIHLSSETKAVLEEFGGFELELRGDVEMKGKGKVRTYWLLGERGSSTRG
The data set is described as follows: cGMP production in 293 cells expressing hNPR-A. The class given is cell-based. The protocol:
Stable 293 cell lines were maintained in glycine free F-12/Dulbecco's minimal essential medium (50/50, v/v) with 10% dialyzed fetal calf serum, 10 mM Hepes, […] of G418 (Geneticin, GIBCO/BRL), pH 7.2, in a humidified incubator at 37° C. with 7% CO2, 93% air. Cells were passaged using 136.8 mM NaCL, 2.6 mM KCl, 7.9 mM Na2HPO4, 1.4 mM KH2PO4, pH 7.2 (PBS) with 0.5 mM EDTA. For concentration-response experiments log phase cultures of 293 cell lines were passaged to 12 well plates at a density of 2.5×10^5 cells/well. After 48 hours cultures were approximately 50% confluent, and were used for stimulation of cGMP production. Peptide treatments were carried out essentially as described by Lowe and Fendly (1992). Briefly, dried peptide aliquots were resuspended in 0.1% (v/v) acetic acid to a stock concentration of 50 μM, and diluted to 1 μM in F-12/Dulbecco's minimal essential medium (50/50, v/v) with 25 mM Hepes, 0.1% (w/v) bovine serum albumin, 0.1 mM isobutylmethylxanthine at pH 7.2 (stimulation medium). Five-fold serial dilutions were prepared in stimulation medium using polypropylene tubes, then prewarmed to 37° C. before use. Cell culture medium was aspirated prior to adding 0.5 ml of stimulation medium plus peptides to monolayer cultures for 10 minutes at 37° C. Reactions were stopped by addition of 0.5 ml of ice cold 12% trichloroacetic acid to give a final volume of 1 ml. Culture plates were frozen on dry ice and stored at −20° C. prior to assay. For cGMP measurements samples were thawed at room temperature, and processed as described by Koller et al., Science 252:120-123 (1991), for cGMP radioimmunoassay (Biomedical Technologies, Inc). All stimulations were performed in triplicate, and samples were measured in duplicate for cGMP by radioimmumoassay. Predicted peptide concentrations were corrected based on quantitative amino acid analysis of duplicate samples from the same set of peptide aliquots used for the stimulation experiments.
Data analysis. The competition binding curves and cGMP production dose responses were analyzed by the four-parameter logistic equation with the KaleidaGraph™ program (Synergy Software, PA) to obtain estimates of the IC50 or EC50 values. The non linear least-squares curve fitting program SCATPLOT was used to analyze the competition binding curves according to a one-site or two-site binding model for competitor. A two-site binding model is reported when the fit to the data was statistically better (p<0.05) than a one-site fit.

Data set [2] addresses human NEP (hNEP), endopeptidase 24.11 (Homo sapiens, UniProt P08473). The data set can be described thus: Degradation of ANF variants by human NEP, half-life by HPLC.
Method: The half-life of various ANF variants was measured according to the following procedure.
ANF Solution: An accurately weighed amount of ANF or variant thereof was diluted with HEPES buffer (5 ml of 1 M HEPES Buffer and 0.1 ml of Tween 20 diluted to a 100 ml volume with DI water) to make a 0.5 mg/ml solution.
hNEP/HEPES Solution: 7.5 μl of a 1 mg/ml solution of hNEP (see U.S. Pat. No. 4,960,700) is dissolved in 992.5 μl of HEPES buffer (as described above) and vortex mixed. The resulting mixture is stored in a silylated Eppendorf tube and periodically checked for activity against an ANF peptide standard.
Assay conditions: 150 μl of an ANF solution in the HEPES buffer is diluted with 820 μl HEPES buffer and vortex mixed (1 sec). Careful note of the time is taken as 30 μl of the hNEP/HEPES solution is added and the solution is vortex mixed for 1 sec. and analyzed by periodic removal of constant volume aliquots by the HPLC autosampler. A 2.5 cm×50 cm, C-18 reversed-phase column (15 micron, 300 Å]) was used and elution was achieved by using a shallow gradient of increasing acetonitrile. The elution conditions consisted of a 10% to 50% acetonitrile (containing 0.1% TFA) gradient at 0.5% min.^−1. The aqueous phase was 0.1% TFA in water. The peak area of the ANP peptide is recorded at these periodic intervals and a half-life is determined from these values.
The mark [3] stands for this setting: isolated human NEP (endopeptidase 24.11) in HEPES buffer, Half-Life (min.), FIG. 7: ANF variants 32 nM/ml, NEP 0.45 μg/ml.

The structures appear in SMILES notation. Read-outs that look alike come from different tables or passages of the source. Where a SMILES comes first, the peptide text is derived from it. Bridges are numbered along the chain shown (N, C = ends).

Sequence of human NEP (hNEP), endopeptidase 24.11 (P08473 whole entry): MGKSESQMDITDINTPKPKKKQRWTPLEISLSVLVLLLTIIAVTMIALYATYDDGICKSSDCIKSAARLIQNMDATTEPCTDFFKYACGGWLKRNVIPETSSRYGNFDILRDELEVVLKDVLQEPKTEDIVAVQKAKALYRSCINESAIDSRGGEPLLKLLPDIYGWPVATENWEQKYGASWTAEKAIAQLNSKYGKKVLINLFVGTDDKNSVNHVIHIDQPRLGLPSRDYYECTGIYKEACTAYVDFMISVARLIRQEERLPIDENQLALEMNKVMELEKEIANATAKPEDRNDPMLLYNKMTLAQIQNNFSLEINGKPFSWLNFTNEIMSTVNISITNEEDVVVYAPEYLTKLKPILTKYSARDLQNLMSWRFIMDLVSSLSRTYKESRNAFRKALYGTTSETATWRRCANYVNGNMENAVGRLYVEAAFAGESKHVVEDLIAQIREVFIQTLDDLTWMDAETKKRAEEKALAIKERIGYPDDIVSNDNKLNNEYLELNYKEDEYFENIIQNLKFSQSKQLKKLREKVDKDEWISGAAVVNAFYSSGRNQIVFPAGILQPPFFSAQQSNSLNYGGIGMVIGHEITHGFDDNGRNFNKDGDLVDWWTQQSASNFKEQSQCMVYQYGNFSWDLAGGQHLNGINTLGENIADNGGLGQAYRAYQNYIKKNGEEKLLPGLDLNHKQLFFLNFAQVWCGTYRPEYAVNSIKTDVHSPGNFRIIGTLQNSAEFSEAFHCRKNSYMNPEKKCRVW

On to `CC[C@H](C)[C@@H]1NC(=O)[C@H](CCCNC(=N)N)NC(=O)[C@H](CC(=O)O)NC(=O)[C@H]([C@@H](C)CC)NC(=O)[C@H](CO)NC(=O)CNC(=O)[C@H]([C@@H](C)O)NC(=O)[C@H](Cc2ccccc2)NC(=O)[C@@H](NC(=O)[C@H](CO)NC(=O)[C@H](CO)NC(=O)[C@H](CCCNC(=N)N)NC(=O)[C@H](CCCNC(=N)N)NC(=O)[C@H](CC(C)C)NC(=O)[C@@H](N)CO)CSSC[C@@H](C(=O)N[C@@H](CC(N)=O)C(=O)N[C@@H](CO)C(=O)N[C@@H](Cc2ccccc2)C(=O)N[C@@H](CCCNC(=N)N)C(=O)N[C@@H](Cc2ccc(O)cc2)C(=O)O)NC(=O)CNC(=O)[C@H](CC(C)C)NC(=O)CNC(=O)[C@H](CO)NC(=O)[C@H](CCC(N)=O)NC(=O)[C@H](C)NC(=O)[C@H](CCCNC(=N)N)NC1=O` [ANF 27], for which, in data set [1], the “Potency in cGMP production compared with rat ANP” value (from here on “Potency … compared with rat ANP”) is “potency very similar to rat ANP” and the “Stimulation of cGMP production (agonist efficacy)” value (from here on “Stimulation of cGMP production”) is “full agonists”. In data set [2] (setting [3]), the half-life at 32 nM/ml stood at 5.57 h.
Turning to `CC[C@H](C)[C@@H]1NC(=O)[C@H](CCCNC(=N)N)NC(=O)[C@H](CC(=O)O)NC(=O)[C@H]([C@@H](C)CC)NC(=O)[C@H](CO)NC(=O)CNC(=O)[C@H]([C@@H](C)O)NC(=O)[C@H](Cc2ccccc2)NC(=O)[C@@H](NC(=O)[C@H](CO)NC(=O)[C@H](CO)NC(=O)[C@H](CCCNC(=N)N)NC(=O)[C@H](CCCNC(=N)N)NC(=O)[C@H](CC(C)C)NC(=O)[C@H](CO)NC(=O)[C@H](CCCNC(=N)N)NC(=O)[C@@H]2CCCN2C(=O)[C@H](C)NC(=O)[C@@H](N)[C@@H](C)O)CSSC[C@@H](C(=O)N[C@@H](CC(N)=O)C(=O)N[C@@H](CO)C(=O)N[C@@H](Cc2ccccc2)C(=O)N[C@@H](CCCNC(=N)N)C(=O)N[C@@H](Cc2ccc(O)cc2)C(=O)O)NC(=O)CNC(=O)[C@H](CC(C)C)NC(=O)CNC(=O)[C@H](CO)NC(=O)[C@H](CCC(N)=O)NC(=O)[C@H](C)NC(=O)[C@H](CCCNC(=N)N)NC1=O` [ANF 76] (H-TAPRSLRRSSCFTGSIDRIRAQSGLGCNSFRY-OH; disulfide 11-27; C-terminus assumed), in data set [1], the “Potency … compared with rat ANP” value is listed as “potency very similar to rat ANP” and the “Stimulation of cGMP production” value is recorded as “full agonists”. The half-life at 32 nM/ml in data set [2] is 23.5 h.
In the case of `CC[C@H](C)[C@@H]1NC(=O)[C@H](CCCNC(=N)N)NC(=O)[C@H](CC(=O)O)NC(=O)[C@H]([C@@H](C)CC)NC(=O)[C@H](CO)NC(=O)CNC(=O)[C@H]([C@@H](C)O)NC(=O)[C@H](Cc2ccccc2)NC[C@@H](NC(=O)[C@H](CO)NC(=O)[C@H](CO)NC(=O)[C@H](CCCNC(=N)N)NC(=O)[C@H](CCCNC(=N)N)NC(=O)[C@H](CC(C)C)NC(=O)[C@@H](N)CO)CSSC[C@@H](C(=O)N[C@@H](CC(N)=O)C(=O)N[C@@H](CO)C(=O)N[C@@H](Cc2ccccc2)C(=O)N[C@@H](CCCNC(=N)N)C(=O)N[C@@H](Cc2ccc(O)cc2)C(=O)O)NC(=O)CNC(=O)[C@H](CC(C)C)NC(=O)CNC(=O)[C@H](CO)NC(=O)[C@H](CCC(N)=O)NC(=O)[C@H](C)NC(=O)[C@H](CCCNC(=N)N)NC1=O` [ANF 84], in data set [1], the “Potency … compared with rat ANP” value is “potency very similar to rat ANP” and the “Stimulation of cGMP production” value is on record as “full agonists”. Besides, in data set [2] (setting [3]), the half-life at 32 nM/ml came out at 39.9 h.

For orientation: half-life means how long it takes for the measured level to halve. A lower half-life goes with fast loss.
